Reference: US20110092445A1, “Amyloid ß peptide analogues, oligomers thereof, processes for preparing and composi-tions comprising said analogues or oligomers, and their uses” (Abbott Laboratories, priority 2008, published 2011)
Bridges are numbered along the chain shown (N, C = ends). Where no end group is shown, it is not given here.

Key:
[1] = tested on: polyclonal rabbit serum 5599; assay: Dot blot analysis with rabbit polyclonal antibody 5599; type: binding; conditions: FIG. 8B; serum shows high general background
Source text: (§1) 1. (14C, 37C) N-Met Aβ(1-42) oligomer of example 4a 2. Thermolysin truncated (14C, 37C) N-Met Aβ(1-42) oligomer of example 5a 3. (15C, 36C) N-Met Aβ(1-42) oligomer of example 4b 4. Thermolysin truncated (15C, 36C) N-Met Aβ(1-42) oligomer of example 5b 5. (16C, 35C) N-Met Aβ(1-42) oligomer of example 4c 6. Thermolysin truncated (16C, 35C) N-Met Aβ(1-42) oligomer of example 5c 7. (17C, 34C) N-Met Aβ(1-42) oligomer of example 4d 8) Thermolysin truncated (17C, 34C) N-Met Aβ(1-42) oligomer of example 5d 9. (18C, 33C) N-Met Aβ(1-42) oligomer of example 4e 10. Thermolysin truncated (18C, 33C) N-Met Aβ(1-42) oligomer of example 5e 11. (19C, 32C) N-Met Aβ(1-42) oligomer of example 4f 12. Thermolysin truncated (19C, 32C) N-Met Aβ(1-42) oligomer of example 5f 13. (20C, 31C) N-Met Aβ(1-42) oligomer of example 4g 14. Thermolysin truncated (20C, 31C) N-Met Aβ(1-42) oligomer of example 5g 15. (21C, 30C) N-Met Aβ(1-42) oligomer of example 4h 16. Thermolysin truncated (21C, 30C) N-Met Aβ(1-42) oligomer of example 5h 17. (22C, 29C) N-Met Aβ(1-42) oligomer of example 4i 18. Thermolysin truncated (22C, 29C) N-Met Aβ(1-42) oligomer of example 5i 19. Aβ(1-42) globulomer of example 4j 20. Aβ(1-42) thermolysin truncated globulomer of example 5j
(§2) • Serial dilution of Aβ antigens in columns 1-20 in 20 mM NaH2PO4, 140 mM NaCl, pH 7.4+0.2 mg/ml BSA • 1) 10 pmol/μl • 2) 1 pmol/μl • 3) 0.1 pmol/μl • 4) 0.01 pmol/μl • 5) 0.001 pmol/μl
(§3) • TBS • 25 mM Tris/HCl-buffer pH 7.5 • +150 mM NaCl • TTBS • 25 mM Tris/HCl-buffer pH 7.5 • +150 mM NaCl • +0.05% Tween 20 • PBS+0.2 mg/ml BSA • 20 mM NaH2PO4 buffer pH 7.4 • +140 mM NaCl • +0.2 mg/ml BSA
(§4) • Either Rabbit sera samples or mouse monoclonal antibodies were used as Antibody solution I and prepared as in the following: • Rabbit sera samples (1:200 diluted in 20 ml 1% low fat milk in TBS) • Mouse monoclonal antibodies (diluted to 0.2 μg/ml in 20 ml 1% low fat milk in TBS)
(§5) • In the case Antibody solution I was Rabbit sera samples then Antibody solution II was Anti-Rabbit-AP. […]

[2] = tested on: Aβ globulomer-specific antibody 7C6; assay: Dot blot analysis with monoclonal antibody 7C6; type: binding, murine; conditions: FIG. 8A
Source text: as §1, §2, §3, §4, §5

[3] = tested on: Alzheimer Disease transgenic mice; conditions: active immunization, cited from earlier work
[4] = tested on: Aβ globulomer epitope specific antibody 10F11; assay: Immunoprecipitation with 10F11-Dynabeads and SELDI-MS detection; type: binding, murine; conditions: FIG. 10A/10B; isotype controls IgG2a, IgG2b
Protocol: (§6) A: Activation of Dynabeads with Monoclonal Mouse Antibodies • The stock-suspension of dynabeads (Dynabeads M-280 Sheep anti-Mouse IgG, Invitrogen; Cat. no.: 112.02) was shaken carefully to prevent foaming. • 1 mL was aseptically removed and transferred to a 1.5 mL reaction vial. • The dynabeads were washed 3 times 5 min with 1 mL immunoprecipitation (IP)-wash buffer (IP-wash-buffer: PBS (20 mM NaH2PO4, 140 mM NaCl, pH 7.4), 0.1% BSA). During the washing procedure the supernatant was carefully removed while the dynabeads were immobilized at the side of the reaction vial with a magnetic separator stand (MSS). • The washed dynabeads were incubated with 40 μg Aβ antibody in 1 mL PBS, 0.1% BSA • The activation was carried out by overnight incubation under shaking at 4° C. • The activated dynabeads were washed 4 times 30 min (again using the MSS) with 1 mL IP-wash buffer (PBS (20 mM NaH2PO4, 140 mM NaCl, pH 7.4), 0.1% BSA). • The activated dynabeads were resuspended with 1 mL PBS, 0.1% BSA, 0.02% NaAzide; vortexed and centrifuged briefly. • The antibody activated dynabeads were stored at 4° C. until further use. […]

[5] = tested on: Aβ globulomer epitope specific antibody 7C6; assay: Immunoprecipitation with 7C6-Dynabeads and SELDI-MS detection; type: binding, murine
Protocol: as §6

| Substance | recognition by polyclonal rabbit serum 5599 in dot blot [1] | recognition by Aβ globulomer-specific antibody 7C6 in dot blot [2] | further results |
| --- | --- | --- | --- |
| Aβ(1-42) globulomer [example 4j] | do not detect | do not detect |  |
| Aβ(20-42) truncated globulomer: obtained by subjecting an Aβ(1-42) globulomer to thermolysin proteolysis (FAEDVGSNKGAIIGLMVGGVVIA; also: truncated globulomer) |  |  | reversal of deficits in novel object recognition task ([3]; AD transgenic mouse models): proven to reverse deficits in novel object recognition task; reversing cognitive defects in Alzheimer Disease transgenic mice [3]: effective in reversing cognitive defects |
| Disulfide-stabilized (17C, 34C) ARO 6-35)-amide oligomer (KCVFFAEDVGSNKGAIIGCM-NH2; disulfide 2-19; also: oligomer; UniProt P05067 687-706, looked up, variant L17C L34C) [example 4p] |  |  | recognition by 10F11 (immunoprecipitation, SELDI-MS) [4]: recognized; recognition by 7C6 (immunoprecipitation, SELDI-MS) ([5]; FIG. 10A/10B, isotype controls IgG2a, IgG2b): recognized; presence of the Aβ globulomer epitope (conclusion from immunoprecipitation) ([5]; immunoprecipitation with 7C6 and 10F11): contained the Aβ globulomer epitope |
| Thermolysin truncation of Aβ(1-42) globulomer [example 5j] | comparable recognition | comparable recognition |  |
| Thermolysin truncation of disulfide-stabilized (15C, 36C) N-Met Aβ(1-42) oligomer [example 5b] | recognized by the polyclonal rabbit serum 5599 | only recognized by the polyclonal rabbit serum 5599 |  |
